In US6388127B1, “Process for preparing cyclic thioamides” (Pfizer INC, priority 1999, dated 2002):

melting point: 81 to 83 °C
Structure (SMILES): O=C1CSCCN1c1ccc(Cl)c(Cl)c1 [Example 1, 4-(3,4-Dichloro-phenyl)-thiomorpholin-3-one]
